Measurements from US9539260B2, “Dihydro-benzo-oxazine and dihydro-pyrido-oxazine derivatives” (Novartis AG, priority 2012, dated 2017).

Columns and labels:
[1] = target: myristoylated catalytic subunit of human PI3K delta in Rat-1 cells (Homo sapiens (Human), UniProt O00329); assay: PI3K-mediated Akt 1/2 (S473) phosphorylation in Rat-1 cells, PI3K delta; assay type: cell-based; settings: Rat-1 cells overexpressing myristoylated human PI3K delta; p-Akt (S473) AlphaScreen SureFire; read-out: Cell PI3Kδ/ IC50
Experimental: 2.1 Phosphoinositide-3 Kinase (PI3K)-Mediated Akt 1/2 (S473) Phosphorylation in Rat-1 Cells
Rat-1 cells stably overexpressing a myristoylated form of the catalytic subunit of human phosphoinositide-3 kinase (PI3K) alpha, beta or delta were plated in 384-well plates at a density of 7500 (PI3K alpha), 6200 (PI3K beta), or 4000 (PI3K delta) cells in 30 ul complete growth medium (Dulbecco's modified Eagle's medium (DMEM high glucose) supplemented with 10% (v/v) fetal bovine serum, 1% (v/v) MEM non essential amino acids, 10 mM HEPES, 2 mM L-glutamine, 10 μg/mL puromycin and 1% (v/v) Penicillin/Streptomycin) and were incubated at […]/5% CO2/95% humidity for 24 h. Compounds were diluted in 384-well compound plates to obtain 8-point serial dilutions for 40 test compounds in 90% DMSO, as well as 4 reference compounds plus 16 high controls and 16 low (inhibited) controls. Predilution plates were prepared by dispensing pipetting 250 nl of compound solutions into 384-well polypropylen plates using a Hummingwell nanoliter dispensor. Compounds were prediluted by the addition of 49.75 ul complete growth medium. 10 ul of prediluted compound solution were transferred to the cell plate using a 384-well pipettor, resulting in a final DMSO concentration of 0.11%.
Cells were incubated for 1 h at […]/5% CO2/95% humidity. The supernatant was removed, the cells were lysed in 20 ul of lysis buffer for AlphaScreen® SureFire® detection.
For detection of p-AKT(Ser473), the SureFire® p-Akt 1/2 (Ser473) Assay Kit (PerkinElmer, U.S.A) was used. 5 ul of cell lysate was transferred to 384-well low volume Proxiplates for detection using a 384-well pipettor. Addition of AlphaScreen® SureFire® reagents was done according to the manufacturer's protocol. First, 5 ul of reaction buffer plus activation buffer mix containing AlphaScreen® acceptor beads was added, the plate was sealed, and incubated on a plate shaker for 2 hours at room temperature. Second, 2 ul of dilution buffer containing AlphaScreen® donor beads was added, and the plate was incubated on plate shaker as above for a further 2 hours. The plate was read on an AlphaScreen® compatible plate reader, using standard AlphaScreen® settings.

PI3K delta = PI3K delta (Homo sapiens (Human), UniProt O00329); assay: Enzymatic PI3K delta isoform inhibition (lipid kinase activity, Kinase-Glo luminescence); assay type: biochemical; settings: Enzymatic assay
In short: (§1)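 IC50s derive from 4-parameter logistic fits of % inhibition across 8 concentrations (usually 10 to 0.003 μM). Lipid kinase reaction: PI3K (10 nM) plus phosphatidylinositol (5 μg/mL) started with 2 μM ATP, stopped near 50% ATP depletion; leftover ATP quantified by Kinase-Glo luminescence.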

PI3K alpha = PI3K alpha (Homo sapiens (Human), UniProt P42336); assay: Enzymatic PI3K alpha isoform inhibition (lipid kinase activity, Kinase-Glo luminescence); assay type: biochemical; settings: Enzymatic assay
In short: as §1

[2] = system: rat B cells derived from whole blood; assay: Determination of rat B cell activation in whole blood (CD86 upregulation after anti-IgM and rIL-4); assay type: cell-based; settings: anti-IgM + rIL-4 stimulation, CD86 on CD45RA+ B cells, read-out: RWB/IC50 CD86
Experimental: 2.3 Determination of Rat B Cell Activation
PI3Kδ has been recognized to modulate B cell function when cells are stimulated through the B cell receptor (BCR) (Okkenhaug et al. Science 297:1031 (2002). For assessing the inhibitory property of compounds on B cell activation, the upregulation of activation markers CD86 on rat B cells derived from whole blood is measured after stimulation with anti-IgM and recombinant IL-4. The CD86 molecule (also known as B7-2) is primarily expressed on antigen-presenting cells, including B cells. Resting B cells express CD86 at low levels, but upregulate it following stimulation of e.g. the BCR or IL-4 receptor. CD86 on a B cell interacts with CD28 on T cells. This interaction is required for optimal T cell activation and for the generation of an optimal IgG1 response (Carreno et al. Annu Rev Immunol. 20:29 (2002)).
Whole blood was collected from the abdominal aorta adult male Lewis rats (LEW/HanHsd) oby using a 10 ml syringe with hypodermic needle pre-coated with sodium heparin. Blood was transferred into 50 ml Falcon tubes and the anticoagulant concentration was adjusted to 100 U/ml.
For assessment of the in vitro effects of immunosuppressive drugs, heparinized blood was prediluted to 50% with medium. As medium served DMEM high glucose (Animed cat#1-26F01-I) supplemented with 100 U/ml penicillin, […], 2 mM L-glutamin, 50 mg/ml dextran 40 and 5% fetal calf serum (FCS, Fetaclone I, Gibco #10270-106). Then, 190 μl prediluted blood was spiked with 10 μl of pre-diluted test compound in 96 well U-bottomed microtiter plates (Nunc) resulting in a 3-fold serial dilution with a concentration range from 20 to 0.0003 μM. Control wells were pretreated with DMSO to obtain a final concentration of 0.5% DMSO. Cultures were set up in duplicates, mixed well by agitation on a plate shaker (Heidolph Titramax 101; 30 sec, speed 900), pipetting up and down and agitated on the plate shaker again. Cultures were incubated at 37° C., 5% CO2 for 1 hr. Then, 20 μl of polyclonal goat anti-rat IgM Ab (Serotec, cat#302001) and 10 μl of diluted recombinant rIL-4 (Immunotools #340085) were added to obtain final concentrations of 30 μg/ml and 5 ng/ml, respectively. Plates were mixed by agitation on a plate shaker as above and incubated for 24 hrs at 37° C., 5% CO2.
After incubation, 15 μl of a 25 mM EDTA solution was added per well and shaken for 15 min to detach adherent cells. For analysis of surface activation markers, samples were then stained with PE-Cy5-labeled anti-ratCD45RA (BD cat#557015) to allow gating on B cells in FACS analysis. In addition, samples were stained with PE-labeled anti-rat CD86 (BD cat#551396). All staining procedures were performed at rt for 30 min in the dark. After incubation, samples were transferred to 96-deep well V-bottomed microtiter plates (Corning #396096) containing 2 ml/well of BD Lysing Solution (BD #349202). After lysis of erythrocytes samples were washed with 2 ml of CellWASH (BD #349524). Data was acquired on an LSRII or FACScalibur flow cytometer (BD Biosciences) using Cellquest Plus or DIVA (version 6.1.1) software, respectively. Lymphocytes were gated in the FSC/SSC dot blot according to size and granularity and further analyzed for expression of CD45RA and activation markers. Data were calculated from dot blots or histograms as percentage of cells positively stained for activation markers within the CD45RA+ population.
The percentage inhibition of B cell activation after exposure to drug was calculated by the following formula: […]
ORIGIN 7 software (OriginLab Corporation, Northampton, Mass.) was used for non-linear regression curve fitting.

Sequence of PI3K delta (O00329 other isoform, or with tags, fused parts or gaps linker GGGGGG): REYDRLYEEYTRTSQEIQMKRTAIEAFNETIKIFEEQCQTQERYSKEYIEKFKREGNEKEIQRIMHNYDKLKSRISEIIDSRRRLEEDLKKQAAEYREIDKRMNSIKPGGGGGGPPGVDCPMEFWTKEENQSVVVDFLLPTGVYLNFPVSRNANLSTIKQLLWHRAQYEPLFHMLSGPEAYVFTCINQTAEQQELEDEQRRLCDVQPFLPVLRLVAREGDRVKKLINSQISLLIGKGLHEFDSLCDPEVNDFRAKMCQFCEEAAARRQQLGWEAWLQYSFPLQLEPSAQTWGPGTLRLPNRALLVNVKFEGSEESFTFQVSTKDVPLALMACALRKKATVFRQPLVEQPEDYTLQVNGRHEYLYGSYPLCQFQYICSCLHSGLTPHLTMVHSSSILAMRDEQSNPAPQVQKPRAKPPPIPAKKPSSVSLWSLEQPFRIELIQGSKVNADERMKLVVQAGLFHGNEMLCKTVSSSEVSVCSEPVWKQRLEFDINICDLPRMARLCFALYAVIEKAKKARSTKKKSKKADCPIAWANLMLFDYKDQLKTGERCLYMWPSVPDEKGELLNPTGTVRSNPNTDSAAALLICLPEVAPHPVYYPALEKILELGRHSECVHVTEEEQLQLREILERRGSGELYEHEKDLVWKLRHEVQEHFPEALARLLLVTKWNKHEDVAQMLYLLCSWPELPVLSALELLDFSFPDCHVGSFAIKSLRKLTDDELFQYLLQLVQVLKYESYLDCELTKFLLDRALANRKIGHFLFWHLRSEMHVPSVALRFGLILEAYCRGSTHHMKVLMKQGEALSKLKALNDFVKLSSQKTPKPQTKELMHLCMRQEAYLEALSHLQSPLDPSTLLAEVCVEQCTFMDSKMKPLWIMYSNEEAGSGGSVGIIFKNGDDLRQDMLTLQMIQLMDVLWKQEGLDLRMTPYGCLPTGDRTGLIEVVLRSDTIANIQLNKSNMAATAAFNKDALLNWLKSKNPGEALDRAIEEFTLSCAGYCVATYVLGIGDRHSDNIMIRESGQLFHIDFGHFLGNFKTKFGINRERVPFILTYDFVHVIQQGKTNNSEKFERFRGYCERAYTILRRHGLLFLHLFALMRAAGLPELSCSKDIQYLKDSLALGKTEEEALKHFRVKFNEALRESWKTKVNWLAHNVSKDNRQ
Sequence of PI3K alpha (P42336 other isoform, or with tags, fused parts or gaps): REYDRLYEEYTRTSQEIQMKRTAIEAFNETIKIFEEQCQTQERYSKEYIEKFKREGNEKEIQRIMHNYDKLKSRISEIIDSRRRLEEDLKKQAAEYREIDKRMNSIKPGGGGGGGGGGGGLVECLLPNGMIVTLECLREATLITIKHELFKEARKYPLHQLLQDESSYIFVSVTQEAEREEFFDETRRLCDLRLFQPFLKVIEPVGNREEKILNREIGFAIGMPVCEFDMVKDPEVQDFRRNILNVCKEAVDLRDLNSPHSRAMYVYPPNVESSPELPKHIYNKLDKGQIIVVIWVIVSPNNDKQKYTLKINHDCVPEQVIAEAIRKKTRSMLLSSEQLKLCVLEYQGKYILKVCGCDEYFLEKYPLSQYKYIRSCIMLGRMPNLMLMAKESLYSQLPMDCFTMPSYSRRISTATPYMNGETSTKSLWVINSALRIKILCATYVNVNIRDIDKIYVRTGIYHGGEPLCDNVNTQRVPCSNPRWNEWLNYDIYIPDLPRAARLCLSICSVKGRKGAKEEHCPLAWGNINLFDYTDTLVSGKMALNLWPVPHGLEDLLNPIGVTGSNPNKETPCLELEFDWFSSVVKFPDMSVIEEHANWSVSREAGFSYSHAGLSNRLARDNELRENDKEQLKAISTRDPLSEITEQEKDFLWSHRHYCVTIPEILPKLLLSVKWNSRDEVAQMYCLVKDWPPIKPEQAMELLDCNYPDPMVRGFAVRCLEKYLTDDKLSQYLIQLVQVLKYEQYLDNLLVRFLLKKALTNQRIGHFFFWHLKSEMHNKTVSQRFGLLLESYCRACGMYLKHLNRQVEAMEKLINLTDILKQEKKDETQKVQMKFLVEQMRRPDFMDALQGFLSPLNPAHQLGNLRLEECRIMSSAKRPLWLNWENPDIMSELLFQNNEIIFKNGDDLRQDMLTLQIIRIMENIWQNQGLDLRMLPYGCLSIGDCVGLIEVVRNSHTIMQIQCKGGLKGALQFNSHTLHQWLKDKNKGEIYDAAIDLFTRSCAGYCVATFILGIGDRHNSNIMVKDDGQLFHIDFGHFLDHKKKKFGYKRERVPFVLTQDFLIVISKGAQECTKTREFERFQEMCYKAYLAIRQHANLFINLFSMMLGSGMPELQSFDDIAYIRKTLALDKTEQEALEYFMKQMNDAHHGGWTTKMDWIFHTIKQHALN
Sequence of myristoylated catalytic subunit of human PI3K delta in Rat-1 cells (O00329 whole entry): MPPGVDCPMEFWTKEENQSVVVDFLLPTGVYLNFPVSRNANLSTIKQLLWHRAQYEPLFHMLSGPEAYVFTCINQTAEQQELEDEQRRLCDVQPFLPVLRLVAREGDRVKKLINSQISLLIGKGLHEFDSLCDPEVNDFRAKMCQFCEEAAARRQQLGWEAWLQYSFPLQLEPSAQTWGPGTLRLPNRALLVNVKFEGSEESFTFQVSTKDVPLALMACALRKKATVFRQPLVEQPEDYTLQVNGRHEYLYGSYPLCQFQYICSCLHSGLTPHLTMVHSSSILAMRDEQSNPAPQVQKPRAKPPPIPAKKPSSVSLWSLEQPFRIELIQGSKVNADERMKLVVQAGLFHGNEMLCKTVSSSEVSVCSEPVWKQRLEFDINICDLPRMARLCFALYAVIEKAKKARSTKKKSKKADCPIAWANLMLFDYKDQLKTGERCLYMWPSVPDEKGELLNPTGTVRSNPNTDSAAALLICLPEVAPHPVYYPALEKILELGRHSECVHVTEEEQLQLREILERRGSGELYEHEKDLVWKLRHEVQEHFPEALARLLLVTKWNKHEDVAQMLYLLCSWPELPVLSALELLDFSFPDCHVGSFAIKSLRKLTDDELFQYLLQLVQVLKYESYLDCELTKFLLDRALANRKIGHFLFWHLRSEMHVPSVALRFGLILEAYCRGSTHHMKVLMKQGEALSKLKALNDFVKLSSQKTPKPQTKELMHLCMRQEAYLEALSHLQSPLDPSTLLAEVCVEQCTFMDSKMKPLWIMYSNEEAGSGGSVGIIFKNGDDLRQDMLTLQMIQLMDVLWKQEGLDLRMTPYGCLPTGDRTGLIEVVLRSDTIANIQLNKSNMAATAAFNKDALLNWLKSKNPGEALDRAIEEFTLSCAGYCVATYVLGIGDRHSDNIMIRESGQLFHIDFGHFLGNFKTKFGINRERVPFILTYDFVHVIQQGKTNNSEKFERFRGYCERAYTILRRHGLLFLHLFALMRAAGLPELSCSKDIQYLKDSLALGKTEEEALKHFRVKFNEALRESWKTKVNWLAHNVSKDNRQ

SMILES | IC50 [1] | IC50 (PI3K delta) | IC50 (PI3K alpha) | IC50 [2]
COc1ncc(N2CCOc3cnc(O[C@H]4CCN(C(=O)C5CCS(=O)(=O)CC5)C4)cc32)cc1C [Example F1, (1,1-Dioxo-hexahydro-1lambda*6*-thiopyran-4-yl)-{(S)-3-[1-(6-methoxy-5-methyl-pyridin-3-yl)-2,3-dihydro-1H-pyrido[3,4-b][1,4]oxazin-7-yloxy]-pyrrolidin-1-yl}-methanone] |  |  |  | 7 nM
COc1ncc(N2CCOc3ccc(O[C@H]4CCN(C(=O)[C@@H]5CCN(C(C)=O)C5)C4)cc32)cc1C [Example B122, 1-((R)-3-{(S)-3-[4-(6-Methoxy-5-methyl-pyridin-3-yl)-3,4-dihydro-2H-benzo[1,4]oxazin-6-yloxy]-pyrrolidine-1-carbonyl}-pyrrolidin-1-yl)-ethanone] |  | 24 nM | 425 nM | 
COc1ncc(N2CCOc3ccc(O[C@H]4CCN(C(=O)N5CCOCC5)C4)cc32)cc1C#N [Example D34, 2-Methoxy-5-{6-[(S)-1-(morpholine-4-carbonyl)-pyrrolidin-3-yloxy]-2,3-dihydro-benzo[1,4]oxazin-4-yl}-nicotinonitrile] |  | 9 nM | 273 nM | 
CS(=O)(=O)c1ccc(N2CCOc3ccc(O[C@H]4CCN(C(=O)C5CCOCC5)C4)cc32)cn1 [Example A43, {(S)-3-[4-(6-Methanesulfonyl-pyridin-3-yl)-3,4-dihydro-2H-benzo[1,4]oxazin-6-yloxy]-pyrrolidin-1-yl}-(tetrahydro-pyran-4-yl)-methanone] |  | 54 nM | 4690 nM | 
COc1ncc(N2CCOc3ccc(O[C@H]4CCN(C(=O)CS(C)(=O)=O)C4)cc32)cc1F [Example B111, 1-{(S)-3-[4-(5-Fluoro-6-methoxy-pyridin-3-yl)-3,4-dihydro-2H-benzo[1,4]oxazin-6-yloxy]-pyrrolidin-1-yl}-2-methanesulfonyl-ethanone] |  | 60 nM | 685 nM | 
CCC(=O)N1CC[C@H](Oc2ccc3c(c2)N(c2cncc(S(=O)(=O)C(C)C)c2)CCO3)C1 [Example B5, 1-((S)-3-{4-[5-(Propane-2-sulfonyl)-pyridin-3-yl]-3,4-dihydro-2H-benzo[1,4]oxazin-6-yloxy}-pyrrolidin-1-yl)-propan-1-one] |  | 25 nM | 236 nM | 
COCC(=O)N1CC[C@H](Oc2cc3c(cn2)OCCN3c2cnc(S(C)(=O)=O)c(C(F)F)c2)C1 [Example F11, 1-{(S)-3-[1-(5-Difluoromethyl-6-methanesulfonyl-pyridin-3-yl)-2,3-dihydro-1H-pyrido[3,4-b][1,4]oxazin-7-yloxy]-pyrrolidin-1-yl}-2-methoxy-ethanone] |  | 76 nM | 78 nM | 
COc1ncc(N2CCOc3ccc(O[C@H]4CCN(C(=O)C(C)(C)O)C4)cc32)cc1C#N [Example D15, 5-{6-[(S)-1-(2-Hydroxy-2-methyl-propionyl)-pyrrolidin-3-yloxy]-2,3-dihydro-benzo[1,4]oxazin-4-yl}-2-methoxy-nicotinonitrile] |  | 58 nM | 711 nM | 
COc1ncc(N2CCOc3ccc(O[C@H]4CCN(C(=O)c5cnco5)C4)cc32)cc1C#N [Example D32, 2-Methoxy-5-{6-[(S)-1-(oxazole-5-carbonyl)-pyrrolidin-3-yloxy]-2,3-dihydro-benzo[1,4]oxazin-4-yl}-nicotinonitrile] |  | 9 nM | 94 nM | 
COc1cc(N2CCOc3ccc(O[C@H]4CCN(C(=O)C5COCCO5)C4)cc32)cnc1OC (stereo partly drawn) [Example B39, {(S)-3-[4-(5,6-Dimethoxy-pyridin-3-yl)-3,4-dihydro-2H-benzo[1,4]oxazin-6-yloxy]-pyrrolidin-1-yl}-[1,4]dioxan-2-yl-methanone] |  | 11 nM | 176 nM | 
COc1ncc(N2CCOc3ccc(O[C@H]4CCN(C(=O)c5cn(C)cn5)C4)cc32)cc1NS(C)(=O)=O [U, N-(2-Methoxy-5-{6-[(S)-1-(1-methyl-1H-imidazole-4-carbonyl)-pyrrolidin-3-yloxy]-2,3-dihydro-benzo[1,4]oxazin-4-yl}-pyridin-3-yl)-methanesulfonamide] |  | 15 nM | 192 nM | 

The remaining lines, values ahead:

IC50 [1] | IC50 (PI3K delta) | IC50 (PI3K alpha) | IC50 [2] | SMILES
50 nM | 6 nM | 337 nM |  | COc1ncc(N2CCOc3cnc(O[C@H]4CCN(C(=O)c5cn(C)cn5)C4)cc32)cc1F [Example F3, {(S)-3-[1-(5-Fluoro-6-methoxy-pyridin-3-yl)-2,3-dihydro-1H-pyrido[3,4-b][1,4]oxazin-7-yloxy]-pyrrolidin-1-yl}-(1-methyl-1H-imidazol-4-yl)-methanone]
 | 61 nM | 3580 nM |  | COc1ncc(N2CCOc3ccc(O[C@H]4CCN(C(=O)C5CCS(=O)(=O)CC5)C4)c(C)c32)cc1C(F)F [X, {(S)-3-[4-(5-Difluoromethyl-6-methoxy-pyridin-3-yl)-5-methyl-3,4-dihydro-2H-benzo[1,4]oxazin-6-yloxy]-pyrrolidin-1-yl}-(1,1-dioxo-hexahydro-1lambda*6*-thiopyran-4-yl)-methanone]
 | 16 nM | 871 nM |  | COc1ncc(N2CCOc3ccc(O[C@H]4CCN(C(=O)C5COCCO5)C4)cc32)cc1F (single isomer, unassigned) [Example H16]
 | 9 nM | 54 nM |  | Cn1cnc(C(=O)N2CC[C@H](Oc3ccc4c(c3)N(c3cnc(S(C)(=O)=O)c(C(F)F)c3)CCO4)C2)c1 [Example B74]
 | 39 nM | 840 nM |  | Cc1cc(N2CCOc3ccc(O[C@H]4CCN(C(=O)Cc5ccncc5)C4)cc32)cnc1S(C)(=O)=O [Example B68, 1-{(S)-3-[4-(6-Methanesulfonyl-5-methyl-pyridin-3-yl)-3,4-dihydro-2H-benzo[1,4]oxazin-6-yloxy]-pyrrolidin-1-yl}-2-pyridin-4-yl-ethanone]
